The test system of the test is Staphylococcus aureus. Put plainly: Inhibition of Hla expression in methicillin-resistant Staphylococcus aureus ATCC 33591 at 16 uM by Western blot analysis. The format is functional, organism-based. In general terms: In western blotting, separated proteins are transferred to a membrane and probed.

Data on one molecule can be found in ChEMBL document CHEMBL4402562, “Discovery of Novel Peptidomimetic Boronate ClpP Inhibitors with Noncanonical Enzyme Mechanism as Potent Virulence Blockers in Vitro and in Vivo” (J Med Chem, 2020).

Activity calls are given as the source filed them. The rule behind the calls is not given here.

For `CC(C)C[C@H](NC(=O)[C@H](Cc1c[nH]c2ccccc12)NC(=O)c1cc(Cl)ccc1Cl)B(O)O`, the inhibition result was “Active”.
